In US7585839B2, “Medical uses of intercellular communication facilitating compounds” (Zealand Pharma A/S, priority 2001, dated 2009):
Where a SMILES comes first, the peptide text is derived from it. [ ]: non-standard residue; d: D form. The star is where a group is joined. Dnp = O=[N+]([O-])c1ccc(*)c([N+](=O)[O-])c1; X1 = [N-]=[N+]=Nc1cc(O)c(C(=O)*)cc1I; Hyp = O=C(O)[C@@H]1C[C@@H](O)CN1; dHyp = O=C(O)[C@H]1C[C@H](O)CN1; Pip = O=C(O)[C@@H]1CCCCN1; Thz = O=C(O)[C@@H]1CSCN1; Acm = CC(=O)NC*; Sar = CNCC(=O)O

System: calcium-induced arrythmias
Assay: Calcium-induced arrhythmia model in mice (CaCl2-induced 2nd degree AV-block)
Format: in vivo
Design: CaCl2 mice Score: scale not given here
Conditions: for CaCl2 mice In vivo, % / CaCl2 mice Score: calcium chloride induced arrythmia model; for In vivo activity: maximal effect, increase in time until 2nd degree AV-block relative to vehicle treated mice, i.v.
Protocol: The antiarrhythmic effects of compounds of this invention were tested in an in vivo model of calcium-induced arrythmias according to the model of Lynch et al.^[37]. […]. Commercial solutions of hypnorm and midazolam were diluted 1:1 in distilled water and one part diluted Hypnorm® is mixed with one part diluted midazolam.
The anaesthesia was induced by s.c. administration in a dose of 0.05-0.075 μl/10 gram mouse. An i.v. cannula was inserted into the tail vein. The lead II ECG signal was recorded continuously by positioning of a stainless steel ECG electrodes on the right forelimb and on the left hind limb. The ground electrode was placed on the right hind limb. The signal was amplified (×5.000-10.000) and filtered (0.1-150 Hz) via a Hugo Sachs Electronic model 689 ECG module. The analogue signal was digitised via a 12 bit data acquisition board (Data Translation model DT321) and sampled at 1000 Hz using the Notocord HEM 3.1 software for Windows NT. After a 10-min equilibration period, the test sample of drug was injected into the tail vein. Mice pre-treated with vehicle were tested as a measure of the control level in untreated animals. The injection volume was 100 μl in all experiments. Infusion of CaCl2 (30 mg/ml, 0.1 ml/min≈100 mg/kg/min (calciumchlorid-2-hydrat, Riedel-de Haën, Germany)) was started 3 min after i.v. administration of drug or vehicle.
The time lag to onset of 2nd degree AV-block was determined as the time from the start of CaCl2 infusion until the first arrhythmic event occured. An event of 2nd degree AV-block was defined as intermittent failure of the AV conduction characterised by a P-wave without the concomitant QRS complex.
Responses were expressed relative to the time until 2nd degree AV-block occurred in vehicle treated mice.

Compound | CaCl2 mice In vivo, % | CaCl2 mice Score | In vivo activity
3(4-hydroxyphenyl)propionyl-Pro-Hyp-Gly-Ala-Gly-Lys-Lys-Lys-Lys-Lys-Lys-NH2 [Compound 51] | 21 +/− 17% | 1 | –
3(4-hydroxyphenyl)propionyl-Pro-Hyp-Gly-Ala-Gly-Lys-Lys-Lys-Lys-Lys-Lys-OH [Compound 49] | 80 +/− 17% | 3 | –
3-(4-hydroxyphenyl)propionyl-Pro-Hyp-Gly-Ala-Gly-OH [HP5, reference compound] | 50 +/− 11% | 2 | ++ (++ refers to 30-50% increase in time until arrhythmia)
CC(=O)NCC(=O)N[C@@H](CC(=O)O)C(=O)N[C@@H](CC(N)=O)C(=O)N[C@@H](Cc1ccc(O)cc1)C(N)=O [Ac-G-D-N-Y-NH2] (Ac-GDNY-NH2) | 19 +/− 8% | – | –
CC(=O)N[C@@H](Cc1ccc(O)cc1)C(=O)N[C@@H](CC(=O)O)C(=O)N[C@@H](CC(N)=O)C(=O)NCC(N)=O [Ac-Y-D-N-G-NH2] (Ac-YDNG-NH2) | 17 +/− 8% | – | –
CC(=O)N[C@@H](Cc1ccc(O)cc1)C(=O)N[C@H](CC(N)=O)C(=O)NCC(=O)O [Ac-Y-DN-G-OH] (Ac-Tyr-[dN]-Gly-OH) | 44 +/− 10% | – | –
CC(=O)N[C@@H](Cc1ccc(O)cc1)C(=O)N1CCC[C@H]1C(=O)N1C[C@H](O)C[C@H]1C(=O)NCC(=O)N[C@@H](C)C(=O)NCC(=O)O [Compound 1, Ac-Tyr-Pro-4Hyp-Gly-Ala-Gly-OH] (Ac-YP[Hyp]GAG-OH) | 50 +/− 20% | – | + (+ refers to 15-29% increase in time until arrhythmia)
C[C@H](NC(=O)CN)C(=O)NCC(=O)N1C[C@@H](O)C[C@@H]1C(=O)N1CCC[C@H]1C(=O)N[C@@H](Cc1ccc(O)cc1)C(N)=O [Compound 5, H-Gly-Ala-Gly-D-Hyp-Pro-Tyr-NH2] (H-GAG[dHyp]PY-NH2) | – | 1 | ++ (++ refers to 30-50% increase in time until arrhythmia)
C[C@H](NC(=O)CN)C(=O)NCC(=O)N1CCC[C@@H]1C(=O)N[C@@H](C)C(=O)N[C@@H](Cc1ccc(O)cc1)C(N)=O [Compound 7, H-Gly-Ala-Gly-D-Pro-Ala-Tyr-NH2] (H-GAG[dP]AY-NH2) | – | 1 | –
C[C@H](NC(=O)CN)C(=O)NCC(=O)N1C[C@@H](O)C[C@@H]1C(=O)N[C@@H](C)C(=O)N[C@@H](Cc1ccc(O)cc1)C(N)=O [Compound 9, H-Gly-Ala-Gly-D-Hyp-Ala-Tyr-NH2] (H-GAG[dHyp]AY-NH2) | – | 1 | + (+ refers to 15-29% increase in time until arrhythmia)
C[C@H](NC(=O)CN)C(=O)NCC(=O)N1C[C@@H](O)C[C@@H]1C(=O)N1CCC[C@@H]1C(=O)N[C@@H](Cc1ccc(O)cc1)C(N)=O [Compound 10, H-Gly-Ala-Gly-D-Hyp-D-Pro-Tyr-NH2] (H-GAG[dHyp][dP]Y-NH2) | – | 2 | +++ (+++ refers to >60% increase in time until arrhythmia)
C[C@H](NC(=O)CN)C(=O)NCC(=O)N1CSC[C@H]1C(=O)N1CCC[C@H]1C(=O)N[C@@H](Cc1ccc(O)cc1)C(N)=O [Compound 12, H-Gly-Ala-Gly-T4C-Pro-Tyr-NH2] (H-GAG[Thz]PY-NH2) | 32 +/− 6% | 2 | ++ (++ refers to 30-50% increase in time until arrhythmia)
C[C@H](NC(=O)CN)C(=O)NCC(=O)N1CCCC[C@H]1C(=O)N1CCC[C@H]1C(=O)N[C@@H](Cc1ccc(O)cc1)C(N)=O [Compound 14, H-Gly-Ala-Gly-PC-Pro-Tyr-NH2] (H-GAG[Pip]PY-NH2) | 21 +/− 11% | 1 | + (+ refers to 15-29% increase in time until arrhythmia)
CC(=O)NCSC[C@H](NC(=O)[C@H](Cc1ccc(O)cc1)NC(=O)[C@@H]1CCCN1C(=O)[C@@H]1C[C@@H](O)CN1C(=O)CNC(=O)[C@H](C)NC(=O)CNC(=O)[C@@H](N)CSCNC(C)=O)C(N)=O [Compound 16, H-Cys(Acm)-Gly-Ala-Gly-Hyp-Pro-Tyr-Cys(Acm)-NH2] (H-C(Acm)GAG[Hyp]PYC(Acm)-NH2) | 23 +/− 10% | 1 | + (+ refers to 15-29% increase in time until arrhythmia)
C[C@H](NC(=O)CNC(=O)[C@H](CC(N)=O)NC(=O)[C@H](Cc1ccc(O)cc1)NC(=O)[C@@H]1CCCN1C(=O)[C@@H]1C[C@@H](O)CN1)C(=O)NCC(N)=O [Compound 28, H-Hyp-Pro-Tyr-Asn-Gly-Ala-Gly-NH2] (H-[Hyp]PYNGAG-NH2) | – | 2 | (+) ((+) refers to <15% in time until arrhythmia)
CNCC(=O)N[C@@H](C)C(=O)N(C)CC(=O)N1C[C@H](O)C[C@H]1C(=O)N1CCC[C@H]1C(=O)N[C@@H](Cc1ccc(O)cc1)C(N)=O [Compound 29, H-Sar-Ala-Sar-Hyp-Pro-Tyr-NH2] (H-[Sar]A[Sar][Hyp]PY-NH2) | – | 1 | + (+ refers to 15-29% increase in time until arrhythmia)
C[C@H](NC(=O)CN)C(=O)N(C)CC(=O)N1C[C@H](O)C[C@H]1C(=O)N1CCC[C@H]1C(=O)N[C@@H](Cc1ccc(O)cc1)C(N)=O [Compound 30, H-Gly-Ala-Sar-Hyp-Pro-Tyr-NH2] (H-GA[Sar][Hyp]PY-NH2) | – | 2 | ++ (++ refers to 30-50% increase in time until arrhythmia)
C[C@H](NC(=O)CNC(=O)[C@@H]1C[C@@H](O)CN1C(=O)[C@@H]1CCCN1C(=O)c1cc(I)c(N=[N+]=[N-])cc1O)C(=O)NCC(N)=O [Compound 32, ASAL(mono-iodo)-Pro-Hyp-Gly-Ala-Gly-NH2] (X1-P[Hyp]GAG-NH2) | – | – | +++ (+++ refers to >60% increase in time until arrhythmia)

Compound | CaCl2 mice In vivo, % | CaCl2 mice Score | In vivo activity
C[C@H](NC(=O)CN)C(=O)NCC(=O)N1C[C@H](O)C[C@H]1C(=O)N1CCC[C@H]1C(=O)N[C@@H](Cc1ccc(O)cc1)C(=O)N[C@@H](CCCCN)C(=O)N[C@@H](CCCCN)C(=O)N[C@@H](CCCCN)C(=O)N[C@@H](CCCCN)C(=O)N[C@@H](CCCCN)C(=O)N[C@@H](CCCCN)C(N)=O [Compound 50] (H-GAG[Hyp]PYKKKKKK-NH2) | 33 +/− 17% | 2 | –
C[C@H](NC(=O)CN)C(=O)NCC(=O)N1C[C@H](O)C[C@H]1C(=O)N1CCC[C@H]1C(=O)N[C@@H](Cc1ccc(O)cc1)C(=O)N[C@@H](CC(N)=O)C(N)=O [H-AAP-10-Asn-NH2] (H-GAG[Hyp]PYN-NH2) | 31 +/− 6% | – | –
NCC(=O)N[C@H](CC(N)=O)C(=O)N[C@@H](Cc1ccc(O)cc1)C(N)=O [H-G-DN-Y-NH2] (H-Gly-[dN]-Tyr-NH2) | 37 +/− 10% | – | –
C[C@H](NC(=O)CN)C(=O)N[C@@H](CC(N)=O)C(=O)N[C@@H](Cc1ccc(O)cc1)C(N)=O [H-GANY-NH2] (H-GANY-NH2) | 21 +/− 7% | – | –
NCC(=O)NCC(=O)N[C@@H](Cc1ccc(O)cc1)C(N)=O [H-GGY-NH2] (H-Gly-Gly-Tyr-NH2) | 39 +/− 9% | – | –
NCC(=O)N[C@@H](CCCCNc1ccc([N+](=O)[O-])cc1[N+](=O)[O-])C(=O)N[C@@H](Cc1ccc(O)cc1)C(N)=O [H-GK(DNP)Y-NH2] (H-Gly-Lys(Dnp)-Tyr-NH2) | 25 +/− 7% | – | –
NC(=O)C[C@@H](NC(=O)[C@@H](N)Cc1ccc(O)cc1)C(=O)NCC(=O)O [H-Y-DN-G-OH] (H-Tyr-[dN]-Gly-OH) | 39 +/− 9% | – | –
NC(=O)CNC(=O)[C@H](CC(N)=O)NC(=O)[C@@H](N)Cc1ccc(O)cc1 [H-YNG-NH2] (H-Tyr-Asn-Gly-NH2) | 34 +/− 9% | – | –
Ac-Gly-Asn-Tyr-NH2 [Compound 40] | 46 +/− 9% | 2 | ++ (++ refers to 30-50% increase in time until arrhythmia)
CF3C(O)-AAP10-NH2 | 48 +/− 13% | 3 | –
Cyclo(Tyr-Pro-4Hyp-Gly-Ala-Gly-Asn) [Compound 3] | 59 +/− 9% | 2 | +++ (+++ refers to >60% increase in time until arrhythmia)
H-DY-DN-G-NH2 | 25 +/− 9% | 1 | –
H-GAGGPY-NH2 [H-GAGGPY-NH2] | 32 +/− 9% | – | –
H-GAG[Hyp]PYKKKKKK-OH [Compound 48] | 64 +/− 10% | 3 | –
H-GP[Hyp]GAG-OH [AAP, reference compound] | 35 +/− 7% | 2 | –
H-Gly-Ala-Gly-Asn-Tyr-NH2 [Compound 39] | 53 +/− 15% | 2 | +++ (+++ refers to >60% increase in time until arrhythmia)
H-Gly-Asn-Tyr-NH2 [Compound 41] | 58 +/− 10% | 2 | ++ (++ refers to 30-50% increase in time until arrhythmia)
[Pro^4]AAP10-NH2 [reference compound] | 62 +/− 9% | 3 | –
